pKi: −log10 of the molar value.
How the values were obtained:
Thymidylate synthase [1] = target: T1, Thymidylate synthase (Lacticaseibacillus casei, UniProt P00469); assay: Inhibition Assay
T1 sequence (P00469 whole entry): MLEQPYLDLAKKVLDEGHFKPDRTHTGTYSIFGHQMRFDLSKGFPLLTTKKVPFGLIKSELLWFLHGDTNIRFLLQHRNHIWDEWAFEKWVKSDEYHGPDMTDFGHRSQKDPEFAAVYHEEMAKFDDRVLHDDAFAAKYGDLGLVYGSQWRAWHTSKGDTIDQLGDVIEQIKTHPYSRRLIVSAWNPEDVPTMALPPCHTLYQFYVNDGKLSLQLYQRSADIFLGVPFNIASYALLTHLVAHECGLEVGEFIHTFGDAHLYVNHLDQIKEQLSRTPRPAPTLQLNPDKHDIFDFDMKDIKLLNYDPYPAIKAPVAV
Description: (§1) All compounds were screened for inhibitory activity against Lactobacillus casei thymidylate synthase (LcTS) and Escherichia coli thymidylate synthase (EsTS). The inhibition experiments were conducted by measuring the effects of the inhibitor at different concentrations on the initial velocity of the enzyme in the presence of a limited amount of the folate substrate.

Thymidylate synthase [2] = target: Thymidylate synthase (Escherichia coli (strain K12), UniProt P0A884); assay: Inhibition Assay
Sequence of Thymidylate synthase (Escherichia coli (strain K12), UniProt P0A884) (P0A884 whole entry): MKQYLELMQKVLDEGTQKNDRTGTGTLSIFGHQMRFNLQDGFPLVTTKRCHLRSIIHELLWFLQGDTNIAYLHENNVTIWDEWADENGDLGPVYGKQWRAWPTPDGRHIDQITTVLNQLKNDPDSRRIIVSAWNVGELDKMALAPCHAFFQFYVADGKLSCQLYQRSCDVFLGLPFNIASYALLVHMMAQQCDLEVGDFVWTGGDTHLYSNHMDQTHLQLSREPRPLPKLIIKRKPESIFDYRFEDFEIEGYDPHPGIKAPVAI
Description: as §1

pKi (Thymidylate synthase [1])	pKi (Thymidylate synthase [2])	SMILES
4.64	3.88	CN(C)c1cccc2c(S(=O)(=O)Oc3ccc4c(c3)CN(S(=O)(=O)CC35CCC(C(=O)C3)C5(C)C)[C@H](C(=O)O)C4)cccc12 (stereo not given in full) [Dansyl derivative, 6R]
5.60	< 2.88	CN(C)c1cccc2c(S(=O)(=O)Oc3ccc(C[C@H](NS(=O)(=O)c4ccc([N+](=O)[O-])cc4)C(=O)O)cc3)cccc12 [Dansyl derivative, 3L]
5.00	3.71	CN(C)c1cccc2c(S(=O)(=O)Oc3ccc4c(c3)CN(S(=O)(=O)Cc3ccccc3)[C@H](C(=O)O)C4)cccc12 [Dansyl derivative, 8R]
5.24	< 2.87	CN(C)c1cccc2c(S(=O)(=O)Oc3ccc(C[C@H](NS(=O)(=O)CC45CCC(C(=O)C4)C5(C)C)C(=O)O)cc3)cccc12 (stereo not given in full) [Dansyl derivative, 6L]
4.82	4.44	CN(C)c1cccc2c(S(=O)(=O)Oc3ccc4c(c3)CN(C(=O)c3ccc([N+](=O)[O-])cc3)[C@H](C(=O)O)C4)cccc12 [Dansyl derivative, 4R]
4.77	< 2.83	CN(C)c1cccc2c(S(=O)(=O)Oc3ccc(C[C@H](NC(=O)c4ccc5ccccc5c4)C(=O)O)cc3)cccc12 [Dansyl derivative, 7L]
5.40	4.22	CN(C)c1cccc2c(S(=O)(=O)Oc3ccc4c(c3)CN(S(=O)(=O)c3cc(Br)c(Br)s3)[C@H](C(=O)O)C4)cccc12 [Dansyl derivative, 9R]
5.26	4.21	CN(C)c1cccc2c(S(=O)(=O)Oc3ccc4c(c3)CN(S(=O)(=O)c3ccc(C(F)(F)F)cc3[N+](=O)[O-])[C@H](C(=O)O)C4)cccc12 [Dansyl derivative, 5R]
5.23	4.64	CN(C)c1cccc2c(S(=O)(=O)Oc3ccc4c(c3)CN(S(=O)(=O)c3ccc([N+](=O)[O-])cc3)[C@H](C(=O)O)C4)cccc12 [Dansyl derivative, 3R]
4.57	< 2.88	CN(C)c1cccc2c(S(=O)(=O)Oc3ccc(C[C@H](NS(=O)(=O)c4cc(Br)c(Br)s4)C(=O)O)cc3)cccc12 [Dansyl derivative, 9L]
5.44	5.15	CN(C)c1cccc2c(S(=O)(=O)Oc3c(I)cc4c(c3I)CN(S(=O)(=O)c3cccc5c(N(C)C)cccc35)[C@H](C(=O)O)C4)cccc12 [Dansyl derivative, 2R]
5.36	5.09	CN(C)c1cccc2c(S(=O)(=O)N[C@@H](Cc3cc(I)c(OS(=O)(=O)c4cccc5c(N(C)C)cccc45)c(I)c3)C(=O)O)cccc12 [Dansyl derivative, 2L]
	5.74	CN(C)c1cccc2c(S(=O)(=O)N[C@@H](Cc3ccc(OS(=O)(=O)c4cccc5c(N(C)C)cccc45)cc3)C(=O)O)cccc12 [Dansyl derivative, DDT, 1L]
5.17	< 3.20	CN(C)c1cccc2c(S(=O)(=O)Oc3ccc(C[C@H](NS(=O)(=O)c4ccc(C(F)(F)F)cc4[N+](=O)[O-])C(=O)O)cc3)cccc12 [Dansyl derivative, 5L]
5.03	2.82	CN(C)c1cccc2c(S(=O)(=O)Oc3ccc4c(c3)CN(C(=O)c3ccc5ccccc5c3)[C@H](C(=O)O)C4)cccc12 [Dansyl derivative, 7R]
5.33	< 2.74	CN(C)c1cccc2c(S(=O)(=O)Oc3ccc(C[C@H](NS(=O)(=O)Cc4ccccc4)C(=O)O)cc3)cccc12 [Dansyl derivative, 8L]
4.82	< 2.88	CN(C)c1cccc2c(S(=O)(=O)Oc3ccc(C[C@H](NC(=O)c4ccc([N+](=O)[O-])cc4)C(=O)O)cc3)cccc12 [Dansyl derivative, 4L]
6.10	4.89	CN(C)c1cccc2c(S(=O)(=O)Oc3ccc4c(c3)CN(S(=O)(=O)c3cccc5c(N(C)C)cccc35)[C@H](C(=O)O)C4)cccc12 [Dansyl derivative, rigid DDT, 1R]
